Source: ChEMBL document CHEMBL5291721, “A preclinical secondary pharmacology resource illuminates target-adverse drug reaction associations of marketed drugs” (Nat Commun, 2023)

What was measured:
[1] = target: T1, Alpha-1A adrenergic receptor (Homo sapiens, UniProt P35348)
T1 sequence (P35348 whole entry): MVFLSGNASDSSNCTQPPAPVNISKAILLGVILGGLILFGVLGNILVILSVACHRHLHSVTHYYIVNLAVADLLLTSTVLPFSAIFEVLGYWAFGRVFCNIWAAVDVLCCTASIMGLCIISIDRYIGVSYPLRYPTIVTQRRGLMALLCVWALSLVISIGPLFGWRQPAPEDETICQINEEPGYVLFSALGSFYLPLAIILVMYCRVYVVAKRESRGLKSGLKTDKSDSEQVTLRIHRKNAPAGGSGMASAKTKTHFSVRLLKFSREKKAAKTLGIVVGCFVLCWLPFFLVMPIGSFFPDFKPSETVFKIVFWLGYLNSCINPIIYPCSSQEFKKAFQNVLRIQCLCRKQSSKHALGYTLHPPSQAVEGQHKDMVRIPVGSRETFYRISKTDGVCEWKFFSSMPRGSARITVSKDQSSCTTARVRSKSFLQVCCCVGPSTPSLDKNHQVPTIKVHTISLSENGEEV

[2] = target: T2, Alpha-2B adrenergic receptor (Homo sapiens, UniProt P18089)
T2 sequence (P18089 whole entry): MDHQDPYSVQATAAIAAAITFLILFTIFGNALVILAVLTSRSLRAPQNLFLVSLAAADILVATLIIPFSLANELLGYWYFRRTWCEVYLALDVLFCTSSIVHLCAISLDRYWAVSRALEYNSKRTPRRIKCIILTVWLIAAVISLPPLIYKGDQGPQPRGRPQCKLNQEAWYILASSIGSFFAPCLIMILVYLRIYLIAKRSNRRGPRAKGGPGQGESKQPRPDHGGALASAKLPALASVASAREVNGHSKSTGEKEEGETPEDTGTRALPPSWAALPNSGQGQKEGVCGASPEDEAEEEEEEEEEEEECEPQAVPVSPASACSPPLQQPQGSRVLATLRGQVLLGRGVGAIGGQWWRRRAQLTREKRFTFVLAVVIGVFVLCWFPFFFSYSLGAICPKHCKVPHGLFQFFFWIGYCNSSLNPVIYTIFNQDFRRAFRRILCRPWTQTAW

[3] = target: T3, Beta-2 adrenergic receptor (Homo sapiens, UniProt P07550)
T3 sequence (P07550 whole entry): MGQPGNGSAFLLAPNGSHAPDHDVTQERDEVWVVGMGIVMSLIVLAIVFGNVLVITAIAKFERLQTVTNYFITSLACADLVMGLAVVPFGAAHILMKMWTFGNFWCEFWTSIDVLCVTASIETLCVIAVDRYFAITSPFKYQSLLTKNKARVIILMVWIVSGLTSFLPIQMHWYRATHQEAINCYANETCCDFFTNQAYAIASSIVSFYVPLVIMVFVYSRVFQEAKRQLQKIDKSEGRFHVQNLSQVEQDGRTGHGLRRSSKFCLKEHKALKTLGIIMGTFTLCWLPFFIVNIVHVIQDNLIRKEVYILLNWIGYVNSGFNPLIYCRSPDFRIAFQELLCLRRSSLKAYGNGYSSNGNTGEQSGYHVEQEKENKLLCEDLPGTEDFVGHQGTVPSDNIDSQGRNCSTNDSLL

Vasopressin V1a receptor = Vasopressin V1a receptor (Homo sapiens, UniProt P37288)
Chain of Vasopressin V1a receptor (P37288 whole entry): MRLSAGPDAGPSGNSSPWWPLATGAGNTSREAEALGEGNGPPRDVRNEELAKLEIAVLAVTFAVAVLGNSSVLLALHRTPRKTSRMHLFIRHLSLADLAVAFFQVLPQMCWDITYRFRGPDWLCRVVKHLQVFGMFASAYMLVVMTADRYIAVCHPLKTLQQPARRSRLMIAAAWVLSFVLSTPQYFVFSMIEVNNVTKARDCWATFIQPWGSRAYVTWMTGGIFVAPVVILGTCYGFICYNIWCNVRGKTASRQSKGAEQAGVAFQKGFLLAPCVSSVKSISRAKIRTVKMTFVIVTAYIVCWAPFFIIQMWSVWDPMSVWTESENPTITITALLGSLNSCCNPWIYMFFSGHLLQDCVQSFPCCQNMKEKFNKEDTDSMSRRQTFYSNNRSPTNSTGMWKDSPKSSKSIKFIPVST

[4] = target: T4, Gastrin/cholecystokinin type B receptor (Homo sapiens, UniProt P32239)
T4 sequence (P32239 whole entry): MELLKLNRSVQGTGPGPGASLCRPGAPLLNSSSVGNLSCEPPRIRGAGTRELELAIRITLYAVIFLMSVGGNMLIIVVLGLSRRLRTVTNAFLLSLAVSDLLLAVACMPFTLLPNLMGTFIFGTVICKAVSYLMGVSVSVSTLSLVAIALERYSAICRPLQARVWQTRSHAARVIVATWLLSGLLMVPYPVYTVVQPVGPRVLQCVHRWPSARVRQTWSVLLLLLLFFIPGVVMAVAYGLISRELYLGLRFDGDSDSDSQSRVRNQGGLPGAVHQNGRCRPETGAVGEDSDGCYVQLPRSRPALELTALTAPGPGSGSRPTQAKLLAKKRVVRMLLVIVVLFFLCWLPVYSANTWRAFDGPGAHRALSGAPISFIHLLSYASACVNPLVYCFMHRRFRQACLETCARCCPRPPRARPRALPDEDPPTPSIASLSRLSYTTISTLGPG

[5] = target: T5, Muscarinic acetylcholine receptor M1 (Homo sapiens, UniProt P11229); format: functional
T5 sequence (P11229 whole entry): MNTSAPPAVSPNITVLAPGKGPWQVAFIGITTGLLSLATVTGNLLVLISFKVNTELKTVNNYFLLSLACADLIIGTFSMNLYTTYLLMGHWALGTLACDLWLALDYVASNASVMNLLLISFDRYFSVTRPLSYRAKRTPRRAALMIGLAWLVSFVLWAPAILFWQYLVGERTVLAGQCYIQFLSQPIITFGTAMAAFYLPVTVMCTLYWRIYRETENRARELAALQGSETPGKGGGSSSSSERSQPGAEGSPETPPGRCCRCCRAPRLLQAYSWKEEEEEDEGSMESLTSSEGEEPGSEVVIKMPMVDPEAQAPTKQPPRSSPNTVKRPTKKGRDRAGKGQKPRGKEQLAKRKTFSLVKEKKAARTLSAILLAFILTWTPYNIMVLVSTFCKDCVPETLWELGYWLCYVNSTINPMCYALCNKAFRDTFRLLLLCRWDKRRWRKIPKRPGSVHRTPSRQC

[6] = target: Muscarinic acetylcholine receptor M3 (Homo sapiens, UniProt P20309)
Chain of Muscarinic acetylcholine receptor M3 (P20309 whole entry): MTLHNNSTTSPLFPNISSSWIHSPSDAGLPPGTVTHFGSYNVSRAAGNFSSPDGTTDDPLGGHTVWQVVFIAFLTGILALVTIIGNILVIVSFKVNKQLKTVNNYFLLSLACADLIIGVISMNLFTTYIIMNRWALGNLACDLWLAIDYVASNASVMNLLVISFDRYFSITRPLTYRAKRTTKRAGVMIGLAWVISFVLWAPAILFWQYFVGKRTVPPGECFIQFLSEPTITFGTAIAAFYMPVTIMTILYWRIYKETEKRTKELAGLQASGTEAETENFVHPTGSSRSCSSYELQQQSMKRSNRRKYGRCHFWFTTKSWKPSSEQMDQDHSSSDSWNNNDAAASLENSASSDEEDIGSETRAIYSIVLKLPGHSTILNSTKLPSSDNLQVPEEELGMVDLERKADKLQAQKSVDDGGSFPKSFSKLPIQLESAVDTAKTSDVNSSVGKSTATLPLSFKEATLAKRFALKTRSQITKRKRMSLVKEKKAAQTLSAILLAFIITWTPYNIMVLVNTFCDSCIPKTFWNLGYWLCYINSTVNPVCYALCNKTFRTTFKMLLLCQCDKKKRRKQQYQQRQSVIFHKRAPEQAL

[7] = target: T6, 5-hydroxytryptamine receptor 2A (Homo sapiens, UniProt P28223); format: functional, cell-based
T6 sequence (P28223 whole entry): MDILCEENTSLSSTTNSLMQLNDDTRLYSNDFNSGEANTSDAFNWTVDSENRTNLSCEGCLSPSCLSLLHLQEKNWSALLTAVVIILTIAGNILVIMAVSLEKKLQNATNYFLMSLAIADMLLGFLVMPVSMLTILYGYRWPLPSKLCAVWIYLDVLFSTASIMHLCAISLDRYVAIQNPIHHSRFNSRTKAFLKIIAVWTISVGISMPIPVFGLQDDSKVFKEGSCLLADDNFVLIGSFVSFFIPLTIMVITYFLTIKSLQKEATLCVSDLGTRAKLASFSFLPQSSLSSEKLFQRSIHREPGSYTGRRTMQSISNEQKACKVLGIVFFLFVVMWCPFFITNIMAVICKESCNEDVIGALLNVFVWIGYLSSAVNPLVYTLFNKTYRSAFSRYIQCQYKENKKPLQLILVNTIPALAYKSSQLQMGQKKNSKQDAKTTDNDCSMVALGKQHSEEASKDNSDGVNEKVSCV

[8] = target: T6, 5-hydroxytryptamine receptor 2A; format: functional, cell-based; remark: listed apart in the source
Melanocortin receptor 4 = Melanocortin receptor 4 (Homo sapiens, UniProt P32245)
Chain of Melanocortin receptor 4 (P32245 whole entry): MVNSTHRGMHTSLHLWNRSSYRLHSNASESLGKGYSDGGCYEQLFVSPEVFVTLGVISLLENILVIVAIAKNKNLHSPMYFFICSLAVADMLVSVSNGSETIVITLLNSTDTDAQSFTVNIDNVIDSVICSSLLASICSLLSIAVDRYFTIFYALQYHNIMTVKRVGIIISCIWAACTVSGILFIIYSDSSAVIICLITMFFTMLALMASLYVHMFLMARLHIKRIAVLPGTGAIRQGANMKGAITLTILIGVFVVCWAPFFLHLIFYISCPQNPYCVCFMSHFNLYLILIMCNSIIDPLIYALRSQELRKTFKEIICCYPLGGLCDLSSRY

Cannabinoid receptor 1 = Cannabinoid receptor 1 (Homo sapiens, UniProt P21554)
Mu-type opioid receptor = Mu-type opioid receptor (Homo sapiens, UniProt P35372); test: biochemical; format: functional
Chain of Mu-type opioid receptor (P35372 whole entry): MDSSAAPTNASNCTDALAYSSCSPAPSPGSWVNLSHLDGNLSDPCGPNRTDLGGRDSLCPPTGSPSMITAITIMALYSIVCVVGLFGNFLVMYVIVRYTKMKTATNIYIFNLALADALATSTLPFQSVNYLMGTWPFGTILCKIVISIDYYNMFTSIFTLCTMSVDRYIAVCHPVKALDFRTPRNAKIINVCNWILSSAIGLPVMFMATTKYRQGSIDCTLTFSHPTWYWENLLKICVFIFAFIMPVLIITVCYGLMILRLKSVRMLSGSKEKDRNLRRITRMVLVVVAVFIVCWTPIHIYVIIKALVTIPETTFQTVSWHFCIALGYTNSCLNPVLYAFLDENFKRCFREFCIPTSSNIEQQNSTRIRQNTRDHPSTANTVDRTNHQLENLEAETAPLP

[9] = target: T3, Beta-2 adrenergic receptor; format: functional, cell-based
Endothelin-1 receptor = target: T7, Endothelin-1 receptor (Homo sapiens, UniProt P25101)
T7 sequence (P25101 whole entry): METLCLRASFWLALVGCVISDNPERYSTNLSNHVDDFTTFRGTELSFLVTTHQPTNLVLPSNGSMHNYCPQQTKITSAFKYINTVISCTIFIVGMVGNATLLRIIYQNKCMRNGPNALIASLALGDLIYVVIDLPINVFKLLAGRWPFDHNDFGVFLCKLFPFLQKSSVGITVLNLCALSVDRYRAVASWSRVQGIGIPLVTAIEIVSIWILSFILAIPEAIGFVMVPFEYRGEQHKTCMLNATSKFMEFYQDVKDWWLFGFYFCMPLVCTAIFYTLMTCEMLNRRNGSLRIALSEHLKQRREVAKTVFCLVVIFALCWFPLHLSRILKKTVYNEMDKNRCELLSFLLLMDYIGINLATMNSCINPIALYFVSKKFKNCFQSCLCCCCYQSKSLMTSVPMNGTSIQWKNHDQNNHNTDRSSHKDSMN

[10] = target: Gamma-aminobutyric acid receptor subunit alpha-1/alpha-2/beta-2/gamma-2 (Homo sapiens, UniProt P14867+P18507+P47869+P47870); format: functional, cell-based
Chain of Gamma-aminobutyric acid receptor subunit alpha-1/alpha-2/beta-2/gamma-2 (P14867 whole entry): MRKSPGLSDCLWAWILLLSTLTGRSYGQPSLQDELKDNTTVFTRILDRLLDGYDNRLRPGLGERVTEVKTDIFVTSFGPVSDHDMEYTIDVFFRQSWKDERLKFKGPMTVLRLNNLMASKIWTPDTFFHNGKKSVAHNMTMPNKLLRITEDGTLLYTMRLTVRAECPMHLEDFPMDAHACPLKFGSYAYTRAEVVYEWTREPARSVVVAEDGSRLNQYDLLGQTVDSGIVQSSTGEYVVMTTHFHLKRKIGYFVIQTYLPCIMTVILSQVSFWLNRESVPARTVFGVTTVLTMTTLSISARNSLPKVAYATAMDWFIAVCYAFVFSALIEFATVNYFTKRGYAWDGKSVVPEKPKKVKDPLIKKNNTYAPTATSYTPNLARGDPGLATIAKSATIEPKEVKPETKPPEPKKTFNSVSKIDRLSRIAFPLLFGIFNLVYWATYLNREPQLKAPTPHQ
Chain of Gamma-aminobutyric acid receptor subunit alpha-1/alpha-2/beta-2/gamma-2 (P47870 whole entry): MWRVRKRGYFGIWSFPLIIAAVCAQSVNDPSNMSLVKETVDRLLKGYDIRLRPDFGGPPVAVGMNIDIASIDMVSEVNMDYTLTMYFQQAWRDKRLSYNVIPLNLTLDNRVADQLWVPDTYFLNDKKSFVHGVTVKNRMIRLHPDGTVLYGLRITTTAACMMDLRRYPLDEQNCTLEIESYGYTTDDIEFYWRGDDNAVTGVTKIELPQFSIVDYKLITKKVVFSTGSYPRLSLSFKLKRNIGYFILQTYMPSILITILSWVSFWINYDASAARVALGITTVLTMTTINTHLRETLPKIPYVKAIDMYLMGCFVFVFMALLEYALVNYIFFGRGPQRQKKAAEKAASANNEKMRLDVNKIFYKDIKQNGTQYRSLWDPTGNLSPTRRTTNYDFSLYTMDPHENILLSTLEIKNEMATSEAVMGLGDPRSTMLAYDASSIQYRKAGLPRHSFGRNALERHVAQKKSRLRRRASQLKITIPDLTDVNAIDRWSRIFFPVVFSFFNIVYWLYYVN
Chain of Gamma-aminobutyric acid receptor subunit alpha-1/alpha-2/beta-2/gamma-2 (P18507 whole entry): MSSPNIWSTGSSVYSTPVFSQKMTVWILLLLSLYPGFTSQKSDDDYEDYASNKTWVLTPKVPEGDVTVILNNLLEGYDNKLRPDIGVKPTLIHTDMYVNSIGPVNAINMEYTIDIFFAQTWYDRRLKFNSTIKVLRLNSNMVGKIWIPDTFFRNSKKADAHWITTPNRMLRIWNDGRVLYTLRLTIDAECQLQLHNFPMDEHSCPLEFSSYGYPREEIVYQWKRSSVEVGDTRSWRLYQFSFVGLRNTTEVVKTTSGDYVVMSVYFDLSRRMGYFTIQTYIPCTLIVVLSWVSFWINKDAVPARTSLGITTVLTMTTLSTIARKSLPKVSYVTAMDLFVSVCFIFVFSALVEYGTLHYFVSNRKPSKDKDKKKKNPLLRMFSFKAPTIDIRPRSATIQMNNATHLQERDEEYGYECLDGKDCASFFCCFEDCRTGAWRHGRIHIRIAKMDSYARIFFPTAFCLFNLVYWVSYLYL
Chain of Gamma-aminobutyric acid receptor subunit alpha-1/alpha-2/beta-2/gamma-2 (P47869 whole entry): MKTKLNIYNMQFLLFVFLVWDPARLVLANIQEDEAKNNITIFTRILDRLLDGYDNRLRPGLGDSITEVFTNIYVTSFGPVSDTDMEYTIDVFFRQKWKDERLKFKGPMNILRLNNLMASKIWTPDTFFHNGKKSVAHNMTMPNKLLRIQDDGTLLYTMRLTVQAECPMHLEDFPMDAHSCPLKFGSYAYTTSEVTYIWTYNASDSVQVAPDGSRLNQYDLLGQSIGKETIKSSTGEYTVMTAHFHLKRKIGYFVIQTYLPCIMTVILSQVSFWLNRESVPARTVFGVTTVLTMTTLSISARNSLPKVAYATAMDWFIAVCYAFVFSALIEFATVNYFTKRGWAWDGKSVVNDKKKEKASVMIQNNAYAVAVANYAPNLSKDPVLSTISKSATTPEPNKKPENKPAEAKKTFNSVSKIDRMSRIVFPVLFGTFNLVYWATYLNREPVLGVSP
Also: assay procedure not described here.

SMILES	AC50 [1] [µM]	AC50 [2] [µM]	AC50 [3] [µM]	AC50 (Vasopressin V1a receptor) [µM]	AC50 [4] [µM]	AC50 [5] [µM]	AC50 [6] [µM]	AC50 [7] [µM]	AC50 [8] [µM]	AC50 (Melanocortin receptor 4) [µM]	AC50 (Cannabinoid receptor 1) [µM]	AC50 (Mu-type opioid receptor) [µM]	AC50 [9] [µM]	AC50 (Endothelin-1 receptor) [µM]	AC50 [10] [µM]
Cc1nnc2n1-c1ccc(Cl)cc1C(c1ccccc1Cl)=NC2 [TRIAZOLAM]	> 10	> 10	> 10	> 30	> 30	> 10	> 30	> 30	> 30	> 30					
COc1ccc(CCNCC(O)COc2cccc(C)c2)cc1OC (centres undefined) [BEVANTOLOL]	1.2	> 10		> 10		> 10	> 30	> 10	> 10	> 10	> 10	> 30			
CC1(C)CCC(CN2CCN(c3ccc(C(=O)NS(=O)(=O)c4ccc(NCC5CCOCC5)c([N+](=O)[O-])c4)c(Oc4cnc5[nH]ccc5c4)c3)CC2)=C(c2ccc(Cl)cc2)C1 [VENETOCLAX]						> 30							> 30		
O=C1C(O)=C([C@H]2CC[C@H](c3ccc(Cl)cc3)CC2)C(=O)c2ccccc21 [ATOVAQUONE]	> 30	> 30	> 30	> 30	> 30	> 30	> 30	> 30	> 30		> 30	> 30		> 30	
COc1ccc2c3c1O[C@H]1[C@@H](O)CC[C@H]4[C@@H](C2)N(C)CC[C@@]341 [DIHYDROCODEINE]		> 30				> 30	> 30	> 30	> 30				> 30		> 30
Fc1ccc(C(c2ccccc2)(c2ccccc2F)n2ccnc2)cc1 (centres undefined) [FLUTRIMAZOLE]		> 30	> 30	> 30	25	> 30	> 30	> 30	> 30			> 30		> 30	
CC/C(=C(\c1ccccc1)c1ccc(OCCN(C)C)cc1)c1ccccc1 [TAMOXIFEN]	> 10		13.6												
C[C@H]1COc2c(C3(N)CC3)c(F)cc3c(=O)c(C(=O)O)cn1c23 [PAZUFLOXACIN]	> 10	> 10	> 10	> 10		> 10	> 30	> 10	> 10	> 10	> 10				
CC(CC1c2ccccc2CCc2ccccc21)CN(C)C (centres undefined) [BUTRIPTYLINE]		5				0.23	1.4	> 30	15				> 30		> 30
NC(=O)OCC(COC(N)=O)c1ccccc1 [FELBAMATE]	> 10	> 10	> 10	> 10		> 10	> 30	> 10	> 10	> 10	> 10				
NC(=O)CN1CC(O)CC1=O (centres undefined) [OXIRACETAM]	> 30	> 30		> 30	> 30	> 30	> 30	> 30	> 30			> 30	> 30	> 30	> 30
Brc1c(NC2=NCCN2)ccc2nccnc12 [BRIMONIDINE]					> 30							> 30	> 30	> 30	> 30
Nc1nc(Cl)nc2c1ncn2[C@H]1C[C@H](O)[C@@H](CO)O1 [CLADRIBINE]					> 30							> 30	> 30	> 30	> 30
Cc1cc(C(C)(C)C)c(O)c(C)c1CC1=NCCN1 [OXYMETAZOLINE]													> 30		> 30
Clc1ccccc1C(c1ccccc1)(c1ccccc1)n1ccnc1 [CLOTRIMAZOLE]	> 10		15								> 10		> 30		
C[C@@H]1O[C@@H](O[C@@H]2C=C3CC[C@@H]4[C@H](CC[C@]5(C)[C@@H](c6ccc(=O)oc6)CC[C@]45O)[C@@]3(C)CC2)[C@H](O)[C@H](O)[C@H]1O [PROSCILLARIDIN]					> 30							> 30	> 30	> 30	
COc1cccc(C2(O)CCCCC2CN(C)C)c1 (centres undefined) [TRAMADOL]	> 10		> 10	> 10	> 30					> 30	> 10		> 30	> 30	
Cc1c(OCC(F)(F)F)ccnc1C[S+]([O-])c1nc2ccccc2[nH]1 (centres undefined) [LANSOPRAZOLE]	> 10		> 10	> 10	22					> 30		4.2		> 30	
C#C[C@]1(O)CC[C@H]2[C@@H]3[C@H](C)CC4=C(CCC(=O)C4)[C@H]3CC[C@@]21C [TIBOLONE]					> 30							> 30	> 30	> 30	
CC(C)(C)NCC(O)COc1cccc2c1CCC(=O)N2 (centres undefined) [CARTEOLOL]	> 10	> 10		> 10		> 10	> 30	> 10	> 10	> 10					
